Tests used:
[1] = Dissolution test, rabeprazole (paddle method, tris buffer pH 8.0); assay type: physicochemical; conditions: tris buffer pH 8.0, 37° C., 50 rpm
Procedure: (§1) Dissolution tests were carried oat, according to the procedures shown in Tables 6 to 8 and described below, on pharmaceutical preparations composed of the drug-containing particles obtained in Examples 11 and 12. The results are shown in Tables 9 and 10 and in FIGS. 14 and 15.
First, 20 mg of rabeprazole sodium is precisely weighed cut and dissolved by adding 30 mL of an aqueous NaOH solution (0.5 M), after which 45 mL of methanol is added, then the volume is brought up to exactly 100mL with a water-methanol solution (2:3). Two mL of this solution is precisely measured out and brought up to exactly 100 mL with a water-methanol solution (2:3), thereby giving a 4 ppm reference solution. In a separate procedure, 2 mL of the same solution is precisely measured out and brought up to a volume of exactly 200 mL with a water-methanol solution (2:3), thereby giving a 2 ppm reference solution. Liquid chromatography is carried on these reference solutions, and the slopes (a) and intercepts (t) of the straight lines obtained by plotting the peak areas and concentrations of rabeprazole are determined.
One milliliter of an aqueous NaOH solution (0.5 M) is added to 5 mL of the sample solution at each sampling time, and the resulting solution is thoroughly mixed. Next, 4 mL of this solution is precisely measured out, then 2 mL of an aqueous NaOH solution (0.5 M) and 8 mL of methanol are added, following which the volume is brought up to exactly 20 mL with a water-methanol solution (2:3). Liquid chromatography is then carried cut under the conditions described above, and the peak area (Qt) for rabeprazole is determined. Both the reference solutions and the sample solution are used as injection solutions after filtration with a membrane filter having a pore sire of 0.2 μm.
Dissolution rate (%)=(Qt−t)/a×5×6/5×900/1,000/amount of rabeprazole Na collected (mg)×100

[2] = Dissolution test, ibuprofen (paddle method, JP second fluid pH 6.8); assay type: physicochemical; conditions: JP second fluid pH 6.8, 37° C., 75 rpm
Procedure: as §1
The liquid sampled in the dissolution test is used directly as the sample solution. Analysis according to “2.01 Liquid Chromatography” is carried out on this sample solution. Testing of the ibuprofen content in the sample solution is carried out under the conditions indicated in (1) above.
In a separate operation, 25 mg of ibuprofen reference is precisely weighed out and dissolved in acetonitrile while bringing the volume up to exactly 50 mL. Next, 5 mL of this solution is precisely measured out and JP second fluid is added so as to bring the volume up to exactly 25 mL, thereby giving a reference solution (about 100 ppm). In a separate operation, 5 mL of this solution is precisely measured out and JP second fluid is added so as to bring the volume up to 50 mL, thereby giving a 50 ppm reference solution. Next, 10 mL of this solution is precisely measured out and JP second fluid is added so as to bring the volume up to exactly 25 mL, thereby giving a […] reference solution. Liquid chromatography is carried out on these reference solutions, and the slopes (a) and intercepts (t) of the straight lines obtained by plotting the peak areas and concentrations of the ibuprofen references are determined. The dissolution rate is determined by entering the content B in the sample solution into the following formula: […]

Row | Dissolution rate ([1]; dissolution time 5 min) [%] | Dissolution rate ([1]; dissolution time 10 min) [%] | Dissolution rate ([1]; dissolution time 15 min) [%] | Dissolution rate ([1]; dissolution time 20 min) [%] | Dissolution rate ([1]; dissolution time 30 min) [%] | Dissolution rate ([1]; dissolution time 60 min) [%] | Dissolution rate ([2]; dissolution time 5 min) [%] | Dissolution rate ([2]; dissolution time 10 min) [%] | Dissolution rate ([2]; dissolution time 15 min) [%] | Dissolution rate ([2]; dissolution time 20 min) [%] | Dissolution rate ([2]; dissolution time 30 min) [%] | Dissolution rate ([2]; dissolution time 60 min) [%] | SMILES
1 | 78.6 | 86.0 | 87.1 | 87.5 | 85.5 | 78.4 |  |  |  |  |  |  | COCCCOc1ccnc(C[S+]([O-])c2nc3ccccc3[nH]2)c1C (stereo not drawn) [RBP-Ref., Rabeprazole Na]
2 |  |  |  |  |  |  | 49.5 | 77.3 | 83.4 | 86.0 | 89.6 | 95.0 | CC(C)Cc1ccc(C(C)C(=O)O)cc1 (stereo not drawn) [IBP-Ref., Ibuprofen]
